Experimental data taken from patent US5252469A, “Process for producing a transglutaminase derived from streptomyces” (Amano Pharmaceutical Co., Ltd., priority 1990, dated 1993).
Read-outs that look alike come from different tables or passages of the source. Peptide text beside a SMILES is read from it. * marks the point of attachment. Cbz = O=C(OCc1ccccc1)*

Experiments:
Type in all cases: biochemical
[1] = system: Enzyme No. 466 (transglutaminase of Streptomyces lavendulae No. 466)
Protocol: (§1) Measurement of the activity of BTGase is carried out by performing a reaction using benzyloxycarbonyl-L-glutaminyl glycine and hydroxylamine as substrates in the absence of Ca^2+, forming an iron complex with the resulting hydroxamic acid in the presence of trichloroacetic acid, measuring absorption at 525 nm and determining the amount of hydroxamic acid by a calibration curve to calculate the activity. The BTGase activity is measured by the method described below, unless otherwise indicated.
(§2) To 0.05 ml of an enzyme solution is added 0.5 ml of Reagent A and they are mixed with each other. After reacting at 37° C. for 10 minutes, Reagent B is added thereto to discontinue the reaction and form an Fe complex. Thereafter, absorbance is measured at 525 nm. […] Separately, a calibration curve is prepared using L-glutamic acid γ-monohydroxamic acid instead of the enzyme solution, and the amount of hydroxamic acid produced is determined by the difference in absorbance described above. An enzyme activity which produces 1 μmol of hydroxamic acid per 1 minute is defined as 1 unit.
(§3) Each inhibitor was added in a concentration of 1 mM.

[2] = system: Enzyme No. 83 (transglutaminase of Streptomyces sp No. 83)
Protocol: as §1, §2, §3

[3] = system: Enzyme No. 466 (transglutaminase of Streptomyces lavendulae No. 466); assay: Substrate specificity: reaction of synthetic substrates with hydroxylamine; conditions: for Substrate specificity, Enzyme No. 466 (reactivity of substrate with hydroxylamine): Table 6, synthetic substrate 5 mM; for Substrate specificity, Enzyme No. 466 (reactivity of substrate with hydroxylamine) / Substrate specificity (%), Enzyme No. 466: CBZ-Gln-Gly = 100; for Substrate specificity (%), Enzyme No. 466: Table 9; for Reactivity of synthetic substrate with Enzyme No. 466 (in words): substrate 5 mM, text says BTGase (both enzymes)
Protocol: as §1
(§4) To 0.05 ml of an enzyme solution is added 0.5 ml of Reagent A and they are mixed with each other. After reacting at 37° C. for 10 minutes, Reagent B is added thereto to discontinue the reaction and form an Fe complex. Thereafter, absorbance is measured at 525 nm. As a control, absorbance is measured after reacting a previously thermally inactivated enzyme solution in a similar manner and a difference in absorbance between the control and the enzyme solution is measured. Separately, a calibration curve is prepared using L-glutamic acid γ-monohydroxamic acid instead of the enzyme solution, and the amount of hydroxamic acid produced is determined by the difference in absorbance described above. An enzyme activity which produces 1 μmol of hydroxamic acid per 1 minute is defined as 1 unit.
(§5) Using each BTGase, reactions of various synthetic substrates with hydroxylamine were examined. […] In this case, the concentration of various synthetic substrates is 5 mM. In the table, CBZ, Gln, Gly and Asn are abbreviations for benzyloxycarbonyl group, glutaminyl group, glycyl group and asparaginyl group, respectively.

[4] = system: Enzyme No. 83 (transglutaminase of Streptomyces sp No. 83); assay: as above; conditions: for Substrate specificity, Enzyme No. 83 (reactivity of substrate with hydroxylamine): Table 6, synthetic substrate 5 mM; for Substrate specificity, Enzyme No. 83 (reactivity of substrate with hydroxylamine) / Substrate specificity (%), Enzyme No. 83: CBZ-Gln-Gly = 100; for Substrate specificity (%), Enzyme No. 83: Table 9; for Reactivity of synthetic substrate with Enzyme No. 83 (in words): substrate 5 mM, text says BTGase (both enzymes)
Protocol: as §1, §4, §5

[5] = molecular target: T1, MTGase (transglutaminase of guinea pig liver) (UniProt P08587); assay: as above; conditions: Table 9; CBZ-Gln-Gly = 100
T1 construct: The guinea pig liver-derived transglutaminase was prepared by the method described in Connellan et al; from tissue; host or cells: guinea pig liver
T1 sequence (P08587 2-690 limits assumed): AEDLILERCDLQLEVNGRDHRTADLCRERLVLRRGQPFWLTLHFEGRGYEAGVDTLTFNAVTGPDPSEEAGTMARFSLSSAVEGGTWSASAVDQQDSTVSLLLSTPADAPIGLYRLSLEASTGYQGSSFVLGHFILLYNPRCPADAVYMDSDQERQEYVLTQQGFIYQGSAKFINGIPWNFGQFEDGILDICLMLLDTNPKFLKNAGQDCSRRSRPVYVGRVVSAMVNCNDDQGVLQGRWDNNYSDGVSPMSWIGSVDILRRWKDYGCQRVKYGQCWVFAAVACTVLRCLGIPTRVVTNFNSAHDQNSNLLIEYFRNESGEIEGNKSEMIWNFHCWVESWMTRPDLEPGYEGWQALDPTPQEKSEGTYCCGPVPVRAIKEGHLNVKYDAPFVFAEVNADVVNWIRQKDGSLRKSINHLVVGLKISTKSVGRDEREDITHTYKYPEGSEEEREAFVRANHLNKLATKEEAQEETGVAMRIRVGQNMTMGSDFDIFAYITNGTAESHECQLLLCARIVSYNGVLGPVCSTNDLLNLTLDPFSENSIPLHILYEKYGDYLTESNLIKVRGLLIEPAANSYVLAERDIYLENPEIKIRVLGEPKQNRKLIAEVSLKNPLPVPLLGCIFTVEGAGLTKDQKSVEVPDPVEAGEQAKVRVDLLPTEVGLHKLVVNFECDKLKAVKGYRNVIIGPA
Protocol: as §1, §4, §5
Next, properties of BTGases are compared to those of guinea pig liver-derived transglutaminase. The guinea pig liver-derived transglutaminase was prepared by the method described in Connellan et al., Journal of Biological Chemistry, Vol. 246, No. 4, pp. 1093-1098 (1971). As will be apparent from Tables 9 and 10, various differences in enzymological properties are noted between transglutaminase of guinea pig liver (hereafter, referred to as MTGase) which has been mainly investigated heretofore and BTGases derived from the genus Streptomyces: in particular, differences are noted in temperature stability, molecular weight, isoelectric point and substrate specificity. Further, a difference is noted in that the BTGases of the present invention act in the presence and absence of Ca^2+. Therefore, the respective enzymes of the present invention are different from MTGase in their properties.

[6] = system: Enzyme No. 466 (transglutaminase of Streptomyces lavendulae No. 466); assay: Influence of metal ions on transglutaminase activity; conditions: for Activity of Enzyme No. 466 with metal ion (%): metal ion 1 mM in activity measurement system, None = 100, 10 min; for Effect of metal ion on activity of Enzyme No. 466 (in words): 1 mM, text says all BTGases
Protocol: as §1, §2

[7] = system: Enzyme No. 83 (transglutaminase of Streptomyces sp No. 83); assay: as above; conditions: for Activity of Enzyme No. 83 with metal ion (%): metal ion 1 mM in activity measurement system, None = 100, 10 min; for Effect of metal ion on activity of Enzyme No. 83 (in words): 1 mM, text says all BTGases
Protocol: as §1, §2

[8] = molecular target: T1, MTGase (transglutaminase of guinea pig liver); assay: Influence of Ca2+ on activity
Protocol: as §1, §4
Next, properties of BTGases are compared to those of guinea pig liver-derived transglutaminase. […]

[9] = 1 mM, 25° C. for 30 minutes, text says all BTGases
[10] = inhibitor 1 mM, 25° C. for 30 minutes, None = 100

| SMILES | Substrate specificity, Enzyme No. 466 (reactivity of substrate with hydroxylamine) [3] | Substrate specificity (%), Enzyme No. 466 [3] | Substrate specificity, Enzyme No. 83 (reactivity of substrate with hydroxylamine) [4] | Substrate specificity (%), Enzyme No. 83 [4] | Substrate specificity (%), MTGase [5] | Activity of Enzyme No. 466 with metal ion (%) [6] | Activity of Enzyme No. 83 with metal ion (%) [7] | also measured |
| --- | --- | --- | --- | --- | --- | --- | --- | --- |
| O=C(O)c1cc[c]([Hg][Cl])cc1 [PCMB, p-chloromercury benzoic acid] |  |  |  |  |  |  |  | Effect of inhibitor on activity of Enzyme No. 466 (in words) [1, 9]: inhibited; Activity of Enzyme No. 466 with inhibitor [1, 10]: 28; Effect of inhibitor on activity of Enzyme No. 83 (in words) [2, 9]: inhibited; Activity of Enzyme No. 83 with inhibitor [2, 10]: 86 |
| CCOC(=O)CNC(=O)[C@H](CCC(N)=O)NC(=O)OCc1ccccc1 [CBZ--Gln--Gly--OEt] (Cbz-Gln-Gly-OEt) | 65 | 65% | 61 | 61% | 122% |  |  |  |
| CCN1C(=O)C=CC1=O [NEM, N-ethylmaleimide] |  |  |  |  |  |  |  | Effect of inhibitor on activity of Enzyme No. 466 (in words) [1, 9]: inhibited; Activity of Enzyme No. 466 with inhibitor [1, 10]: 5; Effect of inhibitor on activity of Enzyme No. 83 (in words) [2, 9]: inhibited; Activity of Enzyme No. 83 with inhibitor [2, 10]: 10 |
| [Cl][Fe]([Cl])[Cl] [FeCl3] |  |  |  |  |  | 97% | 93% |  |
| NC(=O)CC[C@H](NC(=O)OCc1ccccc1)C(=O)N[C@@H](CCC(N)=O)C(=O)NCC(=O)O [CBZ--Gln--Gln--Gly] (Cbz-Gln-Gln-Gly-OH) | 35 | 35% | 49 | 49% | 288% |  |  |  |
| NC(=O)CC[C@H](NC(=O)OCc1ccccc1)C(=O)O [CBZ--Gln, benzyloxycarbonyl glutamine] | 0 | 0% | 0 | 0% | 0% |  |  | Reactivity of synthetic substrate with Enzyme No. 466 (in words) [3]: No BTGase reacts; Reactivity of synthetic substrate with Enzyme No. 83 (in words) [4]: No BTGase reacts |
| [Cl-].[Na+] [NaCl] |  |  |  |  |  | 98% | 102% |  |
| [Cl][Cu][Cl] [CuCl2] |  |  |  |  |  | 90% | 89% | Effect of metal ion on activity of Enzyme No. 466 (in words) [6]: inhibited; Effect of metal ion on activity of Enzyme No. 83 (in words) [7]: inhibited |
| NC(=O)CC[C@H](NC(=O)CNC(=O)OCc1ccccc1)C(=O)NCC(=O)NCC(=O)O [CBZ--Gly--Gln--Gly--Gly] (Cbz-GQGG-OH) | 18 | 18% | 10 | 10% | 126% |  |  |  |
| O=C(O)CN(CCN(CC(=O)O)CC(=O)O)CC(=O)O [EDTA] |  |  |  |  |  |  |  | Activity of Enzyme No. 466 with inhibitor [1]: 108; Activity of Enzyme No. 83 with inhibitor [2]: 103 |
| [Cl-].[Cl-].[Zn+2] [ZnCl2] |  |  |  |  |  | 10% | 36% | Effect of metal ion on activity of Enzyme No. 466 (in words) [6]: inhibited; Effect of metal ion on activity of Enzyme No. 83 (in words) [7]: inhibited |
| O=S(=O)(F)Cc1ccccc1 [PMSF, phenylmethylsulfonyl fluoride] |  |  |  |  |  |  |  | Activity of Enzyme No. 466 with inhibitor [1, 10]: 103; Activity of Enzyme No. 83 with inhibitor [2, 10]: 101 |
| NCC(=O)N[C@@H](CCC(N)=O)C(=O)NCC(=O)O [Gly--Gln--Gly, glycylglutaminyl glycine] (H-Gly-Gln-Gly-OH) | 0 | 0% | 0 | 0% | 0% |  |  | Reactivity of synthetic substrate with Enzyme No. 466 (in words) [3]: No BTGase reacts; Reactivity of synthetic substrate with Enzyme No. 83 (in words) [4]: No BTGase reacts |
| [Cl-].[K+] [KCl] |  |  |  |  |  |  | 104% |  |
| [Ca+2].[Cl-].[Cl-] [CaCl2] |  |  |  |  |  |  |  | Activity of MTGase (%) ([8]; 1 mM CaCl2): 39%; Activity of MTGase (%) ([8]; 5 mM CaCl2): 100% |
| NC(=O)CC[C@H](NC(=O)OCc1ccccc1)C(=O)NCC(=O)O [CBZ--Gln--Gly, benzyloxycarbonylglutaminyl glycine] (Cbz-Gln-Gly-OH) | 100 | 100% | 100 | 100% | 100% |  |  | Reactivity of synthetic substrate with Enzyme No. 466 (in words) [3]: highest; Reactivity of synthetic substrate with Enzyme No. 83 (in words) [4]: highest |
| NC(=O)C[C@H](NC(=O)OCc1ccccc1)C(=O)NCC(=O)O [CBZ--Asn--Gly, benzyloxycarbonylasparaginyl glycine] (Cbz-Asn-Gly-OH) | 0 | 0% | 0 | 0% | 0% |  |  | Reactivity of synthetic substrate with Enzyme No. 466 (in words) [3]: No BTGase reacts; Reactivity of synthetic substrate with Enzyme No. 83 (in words) [4]: No BTGase reacts |
| [Cl][Pb][Cl] [PbCl2] |  |  |  |  |  | 32% | 59% | Effect of metal ion on activity of Enzyme No. 466 (in words) [6]: inhibited; Effect of metal ion on activity of Enzyme No. 83 (in words) [7]: inhibited |
| [Ba+2].[Cl-].[Cl-] [BaCl2] |  |  |  |  |  | 100% | 100% |  |
| [Cl-].[Cl-].[Co+2] [CoCl2] |  |  |  |  |  | 98% | 100% |  |
| [Cl-].[Cl-].[Sr+2] [SrCl2] |  |  |  |  |  | 97% | 100% |  |
| O=C(O)CI [Monoiodoacetic acid, monoiodoacetic acid] |  |  |  |  |  |  |  | Activity of Enzyme No. 466 with inhibitor [1]: 87; Effect of inhibitor on activity of Enzyme No. 466 (in words) [1]: inhibited; Activity of Enzyme No. 83 with inhibitor [2]: 92; Effect of inhibitor on activity of Enzyme No. 83 (in words) [2]: inhibited |
